Assay results from PubChem BioAssay (NCI).
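Growth conditions: 96-well plates. Treatment: test compound, 48 hours, 5 concentrations. Analysis: linear interpolation between bracketing concentrations; unreached endpoints set to highest concentration. Abbreviation: GI50, concentration required for 50% inhibition of growth. TGI: total growth inhibition.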

What was measured:
Experiment in all cases: NCI tumour cell line growth inhibition, 48 h
[1] = test system: A498 renal
[2] = test system: BT-549 breast
[3] = test system: HOP-92 NSCLC
[4] = test system: MDA-MB-435
[5] = test system: SK-MEL-28 melanoma
[6] = test system: U251 CNS
[7] = test system: UO-31 renal
[8] = test system: 786-0 renal
[9] = test system: TK-10 renal
[10] = test system: T-47D breast
[11] = test system: SN12C renal
[12] = test system: NCI/ADR-RES ovarian
[13] = test system: A549 NSCLC
[14] = test system: SK-MEL-5 melanoma
[15] = test system: PC-3 prostate
[16] = test system: ACHN renal
[17] = test system: UACC-62 melanoma
[18] = test system: HT29 colon
[19] = test system: HOP-62 NSCLC
[20] = test system: RPMI-8226 leukemia
[21] = test system: SF-268 CNS
[22] = test system: EKVX NSCLC
[23] = test system: RXF 393 renal
[24] = test system: LOX IMVI melanoma
[25] = test system: CCRF-CEM leukemia
[26] = test system: NCI-H522 lung
[27] = test system: HCC-2998 colon
[28] = test system: COLO 205 colon
[29] = test system: SF-539 CNS
[30] = test system: MDA-MB-231 breast
[31] = test system: OVCAR-4 ovarian
[32] = test system: HCT-116 colon
[33] = test system: OVCAR-8 ovarian
[34] = test system: MCF7 breast
[35] = test system: NCI-H23 lung
[36] = test system: SNB-75 CNS
[37] = test system: NCI-H226 lung
[38] = test system: OVCAR-3 ovarian
[39] = test system: SNB-19 CNS
[40] = test system: DU-145 prostate
[41] = test system: K-562 leukemia
[42] = test system: HL-60(TB) leukemia
[43] = test system: KM12 colon
[44] = test system: SK-MEL-2 melanoma
[45] = test system: HS 578T breast
[46] = test system: MOLT-4 leukemia
[47] = test system: OVCAR-5 ovarian
[48] = test system: SF-295 CNS
[49] = test system: MALME-3M melanoma
[50] = test system: NCI-H460 lung
[51] = test system: SW-620 colon
[52] = test system: HCT-15 colon
[53] = test system: M14 melanoma
[54] = test system: SK-OV-3 ovarian
[55] = test system: CAKI-1 renal
[56] = test system: UACC-257 melanoma
[57] = test system: IGROV1 ovarian

Compound: Cc1c2c[n+](C(C)C)ccc2c(C)c2c1[nH]c1ccccc12
- GI50 [1]: 1.94 µM
- TGI [1]: 64 µM
- GI50 [2]: 1.72 µM
- TGI [2]: 11.2 µM
- GI50 [3]: 1.86 µM
- TGI [3]: 6.95 µM
- GI50 [4]: 3.2 µM
- TGI [4]: 13.2 µM
- GI50 [5]: 2.25 µM
- TGI [5]: 12.9 µM
- GI50 [6]: 0.456 µM
- TGI [6]: 15.2 µM
- GI50 [7]: 20.6 µM
- TGI [7]: > 100 µM
- GI50 [8]: 1.53 µM
- TGI [8]: > 100 µM
- GI50 [9]: 21.1 µM
- TGI [9]: > 100 µM
- GI50 [10]: 1.48 µM
- TGI [10]: 6.64 µM
- GI50 [11]: 0.32 µM
- TGI [11]: 11.8 µM
- GI50 [12]: 56.5 µM
- TGI [12]: > 100 µM
- GI50 [13]: 2.55 µM
- TGI [13]: > 100 µM
- GI50 [14]: 1.5 µM
- TGI [14]: 3.89 µM
- GI50 [15]: 2.59 µM
- TGI [15]: 40.6 µM
- GI50 [16]: 22.6 µM
- TGI [16]: > 100 µM
- GI50 [17]: 2.7 µM
- TGI [17]: 15 µM
- GI50 [18]: 3.15 µM
- TGI [18]: 58.8 µM
- GI50 [19]: 2.35 µM
- TGI [19]: 36.1 µM
- GI50 [20]: 1.82 µM
- TGI [20]: 13.1 µM
- GI50 [21]: 0.475 µM
- TGI [21]: 14.9 µM
- GI50 [22]: 3.51 µM
- TGI [22]: 53.9 µM
- GI50 [23]: 6.19 µM
- TGI [23]: > 100 µM
- GI50 [24]: 9.17 µM
- TGI [24]: 32.1 µM
- GI50 [25]: 3.97 µM
- TGI [25]: 38.7 µM
- GI50 [26]: 2.26 µM
- TGI [26]: 11.4 µM
- GI50 [27]: 2.99 µM
- TGI [27]: 13.7 µM
- GI50 [28]: 1.77 µM
- TGI [28]: 6.46 µM
- GI50 [29]: 1.62 µM
- TGI [29]: 16.4 µM
- GI50 [30]: 4.86 µM
- TGI [30]: 43 µM
- GI50 [31]: 2.61 µM
- TGI [31]: 15.4 µM
- GI50 [32]: 4.36 µM
- TGI [32]: 68.2 µM
- GI50 [33]: 1.46 µM
- TGI [33]: 32.1 µM
- GI50 [34]: 1.85 µM
- TGI [34]: 14.8 µM
- GI50 [35]: 1.75 µM
- TGI [35]: 15.7 µM
- GI50 [36]: 1.34 µM
- TGI [36]: 40.9 µM
- GI50 [37]: 4.32 µM
- TGI [37]: 41.5 µM
- GI50 [38]: 2.61 µM
- TGI [38]: 12.2 µM
- GI50 [39]: 0.416 µM
- TGI [39]: 14.7 µM
- GI50 [40]: 4.74 µM
- TGI [40]: 54.1 µM
- GI50 [41]: 2.72 µM
- TGI [41]: 29 µM
- GI50 [42]: 3.13 µM
- TGI [42]: 19.2 µM
- GI50 [43]: 1.14 µM
- TGI [43]: 10.9 µM
- GI50 [44]: 2.89 µM
- TGI [44]: 9.81 µM
- GI50 [45]: 1.13 µM
- TGI [45]: 19 µM
- GI50 [46]: 3.28 µM
- TGI [46]: 17.8 µM
- GI50 [47]: 5.95 µM
- TGI [47]: > 100 µM
- GI50 [48]: 1.32 µM
- TGI [48]: 20 µM
- GI50 [49]: 1.48 µM
- TGI [49]: 6.9 µM
- GI50 [50]: 2.44 µM
- TGI [50]: 10.9 µM
- GI50 [51]: 3.63 µM
- TGI [51]: 49.7 µM
- GI50 [52]: 52.1 µM
- TGI [52]: > 100 µM
- GI50 [53]: 3.77 µM
- TGI [53]: 17 µM
- GI50 [54]: 3.19 µM
- TGI [54]: 39.8 µM
- GI50 [55]: > 100 µM
- TGI [55]: > 100 µM

Compound: C#Cc1c(C(N)=O)ncn1C1OC(COP(=O)(OCc2ccc([N+](=O)[O-])o2)N(C)CCCCCl)C(O)C1O (configuration not stated)
- GI50 [1]: 39.6 µM
- TGI [1]: > 100 µM
- GI50 [2]: 37.8 µM
- TGI [2]: > 100 µM
- GI50 [3]: 51.2 µM
- TGI [3]: > 100 µM
- GI50 [4]: 46.2 µM
- TGI [4]: > 100 µM
- GI50 [5]: 27.3 µM
- TGI [5]: > 100 µM
- GI50 [6]: 53.9 µM
- TGI [6]: > 100 µM
- GI50 [7]: 34.8 µM
- TGI [7]: > 100 µM
- GI50 [8]: 36.3 µM
- TGI [8]: > 100 µM
- GI50 [9]: 43.1 µM
- TGI [9]: > 100 µM
- GI50 [10]: 12.7 µM
- TGI [10]: > 100 µM
- GI50 [11]: 48.3 µM
- TGI [11]: > 100 µM
- GI50 [12]: 15.1 µM
- TGI [12]: > 100 µM
- GI50 [13]: 28.5 µM
- TGI [13]: > 100 µM
- GI50 [14]: 2.83 µM
- TGI [14]: 26.5 µM
- GI50 [15]: 53.5 µM
- TGI [15]: > 100 µM
- GI50 [16]: 45 µM
- TGI [16]: > 100 µM
- GI50 [17]: > 100 µM
- TGI [17]: > 100 µM
- GI50 [18]: 13.3 µM
- TGI [18]: > 100 µM
- GI50 [19]: 49.3 µM
- TGI [19]: > 100 µM
- GI50 [20]: 0.0113 µM
- TGI [20]: > 100 µM
- GI50 [21]: 45.1 µM
- TGI [21]: > 100 µM
- GI50 [22]: 82.9 µM
- TGI [22]: > 100 µM
- GI50 [56]: 35.2 µM
- TGI [56]: > 100 µM
- GI50 [23]: > 100 µM
- TGI [23]: > 100 µM
- GI50 [24]: 22.4 µM
- TGI [24]: > 100 µM
- GI50 [25]: 21.9 µM
- TGI [25]: > 100 µM
- GI50 [57]: 4.59 µM
- TGI [57]: > 100 µM
- GI50 [26]: 3.78 µM
- TGI [26]: 88.1 µM
- GI50 [27]: 16.2 µM
- TGI [27]: > 100 µM
- GI50 [28]: 5.5 µM
- TGI [28]: 88.2 µM
- GI50 [29]: 19.7 µM
- TGI [29]: > 100 µM
- GI50 [30]: > 100 µM
- TGI [30]: > 100 µM
- GI50 [31]: > 100 µM
- TGI [31]: > 100 µM
- GI50 [32]: 38.2 µM
- TGI [32]: > 100 µM
- GI50 [33]: 9.91 µM
- TGI [33]: > 100 µM
- GI50 [34]: 20.1 µM
- TGI [34]: > 100 µM
- GI50 [35]: 5.99 µM
- TGI [35]: 73.6 µM
- GI50 [36]: 28.1 µM
- TGI [36]: > 100 µM
- GI50 [37]: > 100 µM
- TGI [37]: > 100 µM
- GI50 [38]: 15.1 µM
- TGI [38]: 63.5 µM
- GI50 [39]: 51.7 µM
- TGI [39]: > 100 µM
- GI50 [40]: 7.83 µM
- TGI [40]: > 100 µM
- GI50 [41]: 74.2 µM
- TGI [41]: > 100 µM
- GI50 [42]: > 100 µM
- TGI [42]: > 100 µM
- GI50 [43]: 42.7 µM
- TGI [43]: > 100 µM
- GI50 [44]: 89.9 µM
- TGI [44]: > 100 µM
- GI50 [45]: > 100 µM
- TGI [45]: > 100 µM
- GI50 [46]: 83.7 µM
- TGI [46]: > 100 µM
- GI50 [47]: 16.2 µM
- TGI [47]: > 100 µM
- GI50 [48]: 31.2 µM
- TGI [48]: > 100 µM
- GI50 [50]: 34.1 µM
- TGI [50]: > 100 µM
- GI50 [51]: 41.4 µM
- TGI [51]: > 100 µM
- GI50 [52]: 31.3 µM
- TGI [52]: > 100 µM
- GI50 [53]: 67.9 µM
- TGI [53]: > 100 µM
- GI50 [54]: 77 µM
- TGI [54]: > 100 µM
- GI50 [55]: 47.9 µM
- TGI [55]: > 100 µM
